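Each compound was tested at five concentrations against cells in 96-well plates for 48 hours. TGI: concentration producing complete growth inhibition.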
How the values were obtained:
Assay in all cases: NCI tumour cell line growth inhibition, 48 h
[1] = system: OVCAR-4 ovarian
[2] = system: RXF 393 renal
[3] = system: HCT-116 colon
[4] = system: HOP-62 NSCLC
[5] = system: MALME-3M melanoma
[6] = system: SK-MEL-5 melanoma
[7] = system: OVCAR-3 ovarian
[8] = system: KM20L2 colon
[9] = system: COLO 205 colon
[10] = system: P388 leukemia
[11] = system: SK-MEL-2 melanoma
[12] = system: SK-OV-3 ovarian
[13] = system: A549 NSCLC
[14] = system: IGROV1 ovarian
[15] = system: HCC-2998 colon
[16] = system: SNB-19 CNS
[17] = system: OVCAR-5 ovarian
[18] = system: KM12 colon
[19] = system: MCF7 breast
[20] = system: SW-620 colon
[21] = system: DLD-1 colon
[22] = system: A498 renal
[23] = system: EKVX NSCLC
[24] = system: XF 498 CNS
[25] = system: NCI-H460 lung
[26] = system: HL-60(TB) leukemia
[27] = system: NCI-H226 lung
[28] = system: SN12C renal
[29] = system: HCT-15 colon
[30] = system: HOP-92 NSCLC
[31] = system: RPMI-8226 leukemia
[32] = system: NCI/ADR-RES ovarian
[33] = system: HT29 colon
[34] = system: UO-31 renal
[35] = system: NCI-H23 lung
[36] = system: DMS 114 small cell lung
[37] = system: SNB-78 CNS
[38] = system: P388/ADR leukemia
[39] = system: DMS 273 small cell lung
[40] = system: HOP-18 NSCLC
[41] = system: UACC-257 melanoma
[42] = system: K-562 leukemia
[43] = system: U251 CNS
[44] = system: SF-539 CNS
[45] = system: LOX IMVI melanoma
[46] = system: M19-MEL melanoma
[47] = system: SK-MEL-28 melanoma
[48] = system: UACC-62 melanoma
[49] = system: CCRF-CEM leukemia
[50] = system: OVCAR-8 ovarian
[51] = system: NCI-H522 lung
[52] = system: SF-268 CNS
[53] = system: SN12K1 renal
[54] = system: SF-295 CNS
[55] = system: SNB-75 CNS
[56] = system: CAKI-1 renal
[57] = system: MOLT-4 leukemia

Compound: N/C(=N\N=C/c1ccccc1O)NO
- TGI [1]: 31.1 µM
- TGI [2]: 25.9 µM
- TGI [3]: 47.8 µM
- TGI [4]: > 60.8 µM
- TGI [5]: > 84.1 µM
- TGI [6]: > 100 µM
- TGI [7]: > 100 µM
- TGI [8]: > 100 µM
- TGI [9]: > 27.4 µM
- TGI [10]: 18.7 µM
- TGI [11]: > 90.8 µM
- TGI [12]: > 87.1 µM
- TGI [13]: > 100 µM
- TGI [14]: > 100 µM
- TGI [15]: 25.6 µM
- TGI [16]: > 91.3 µM
- TGI [17]: > 100 µM
- TGI [18]: > 100 µM
- TGI [19]: 26.5 µM
- TGI [20]: > 100 µM
- TGI [21]: > 45.6 µM
- TGI [22]: 44.4 µM
- TGI [23]: 71.4 µM
- TGI [24]: 37.4 µM
- TGI [25]: > 43.7 µM
- TGI [26]: > 36 µM
- TGI [27]: 64.8 µM
- TGI [28]: > 100 µM
- TGI [29]: > 100 µM
- TGI [30]: > 67.6 µM
- TGI [31]: 27 µM
- TGI [32]: 44.2 µM
- TGI [33]: > 42 µM
- TGI [34]: > 95.5 µM
- TGI [35]: 53.9 µM
- TGI [36]: 30.7 µM
- TGI [37]: > 96.6 µM
- TGI [38]: 10.8 µM
- TGI [39]: 28.7 µM
- TGI [40]: > 100 µM
- TGI [41]: > 100 µM
- TGI [42]: > 77.6 µM
- TGI [43]: > 100 µM
- TGI [44]: 28.3 µM
- TGI [45]: > 100 µM
- TGI [46]: > 100 µM
- TGI [47]: > 100 µM
- TGI [48]: 38.4 µM
- TGI [49]: > 50.9 µM
- TGI [50]: > 43.7 µM
- TGI [51]: 29.8 µM
- TGI [52]: 90.5 µM
- TGI [53]: > 100 µM
- TGI [54]: > 34.4 µM
- TGI [55]: > 29.9 µM
- TGI [56]: 24 µM
- TGI [57]: > 70.2 µM

Compound: CC1(C)CC23C4COC(=O)C2CCC1C3CC4=O (stereo not drawn)
- TGI [1]: 64.2 µM
- TGI [2]: 4.76 µM
- TGI [3]: 21.9 µM
- TGI [4]: 59.3 µM
- TGI [5]: 23.3 µM
- TGI [6]: 32.7 µM
- TGI [7]: 27.7 µM
- TGI [8]: 54.6 µM
- TGI [9]: 33.6 µM
- TGI [10]: 111 µM
- TGI [11]: 40.6 µM
- TGI [12]: 104 µM
- TGI [13]: 70.3 µM
- TGI [14]: 69 µM
- TGI [15]: 37.2 µM
- TGI [16]: 81.2 µM
- TGI [17]: 72.4 µM
- TGI [18]: 27.2 µM
- TGI [19]: 47.9 µM
- TGI [20]: 10.2 µM
- TGI [21]: 42.6 µM
- TGI [22]: 13.8 µM
- TGI [23]: 83.8 µM
- TGI [24]: 27.2 µM
- TGI [25]: 29.8 µM
- TGI [26]: 12.6 µM
- TGI [27]: 20.6 µM
- TGI [28]: 42.5 µM
- TGI [29]: 21.9 µM
- TGI [30]: 29.3 µM
- TGI [31]: 48.6 µM
- TGI [32]: 24.8 µM
- TGI [33]: 95.2 µM
- TGI [34]: 90.1 µM
- TGI [35]: 10.8 µM
- TGI [37]: 73.4 µM
- TGI [38]: 84.5 µM
- TGI [39]: 71 µM
- TGI [40]: 5.11 µM
- TGI [41]: 26.3 µM
- TGI [42]: 123 µM
- TGI [43]: 50.7 µM
- TGI [44]: 45.1 µM
- TGI [45]: 22.6 µM
- TGI [46]: 40.7 µM
- TGI [47]: 18.9 µM
- TGI [48]: 28.7 µM
- TGI [49]: 43.4 µM
- TGI [50]: 46.6 µM
- TGI [51]: 11.2 µM
- TGI [52]: 50.9 µM
- TGI [53]: 48.2 µM
- TGI [54]: 53.5 µM
- TGI [55]: 57.6 µM
- TGI [56]: 43 µM
- TGI [57]: 63.2 µM
